From PMC8595612, “Hydrogen peroxide signaling via its transformation to a stereospecific alkyl hydroperoxide that escapes reductive inactivation” (Nature Communications, 2021)

Assays:
GPx4 = molecular target: T1, GPx4 (Rattus norvegicus, UniProt P36970); assay: coupled NADPH oxidation assay, apparent second-order rate constant; type: biochemical
T1 construct: GPx4 isolated from rat testis mitochondria
T1 sequence (P36970 28-197): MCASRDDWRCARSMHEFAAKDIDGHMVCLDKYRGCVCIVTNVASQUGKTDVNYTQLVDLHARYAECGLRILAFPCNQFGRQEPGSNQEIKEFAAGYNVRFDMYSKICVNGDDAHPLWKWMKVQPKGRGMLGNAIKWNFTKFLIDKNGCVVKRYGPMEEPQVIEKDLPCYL

PKG1α = molecular target: T2, PKG1α (Homo sapiens, UniProt Q13976); assay: oxidative dimerization of purified PKG1α, non-reducing SDS-PAGE; type: biochemical
T2 construct: gene PRKG1; purified recombinant PKG1α, His-tag cleaved
T2 sequence (Q13976 2-671): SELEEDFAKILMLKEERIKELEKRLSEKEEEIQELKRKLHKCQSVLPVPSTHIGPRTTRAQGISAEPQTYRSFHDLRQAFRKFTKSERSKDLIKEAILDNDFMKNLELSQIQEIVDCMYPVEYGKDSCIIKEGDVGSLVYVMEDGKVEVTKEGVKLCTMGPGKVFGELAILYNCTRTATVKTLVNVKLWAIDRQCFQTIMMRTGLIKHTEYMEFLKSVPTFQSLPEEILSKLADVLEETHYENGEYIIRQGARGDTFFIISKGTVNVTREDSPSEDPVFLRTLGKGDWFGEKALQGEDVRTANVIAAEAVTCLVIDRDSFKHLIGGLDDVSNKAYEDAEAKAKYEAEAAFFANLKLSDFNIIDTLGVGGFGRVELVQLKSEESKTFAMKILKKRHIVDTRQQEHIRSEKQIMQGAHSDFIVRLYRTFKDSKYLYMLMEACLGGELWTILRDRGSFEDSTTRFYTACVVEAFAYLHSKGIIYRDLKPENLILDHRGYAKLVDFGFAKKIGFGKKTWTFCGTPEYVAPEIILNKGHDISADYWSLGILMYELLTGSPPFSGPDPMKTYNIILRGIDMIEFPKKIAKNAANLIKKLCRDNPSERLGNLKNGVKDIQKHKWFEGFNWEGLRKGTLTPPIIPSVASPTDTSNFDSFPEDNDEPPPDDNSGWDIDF

Prx4 = molecular target: T3, Prx4 (Homo sapiens, UniProt Q13162); assay: redox blotting, estimated rate constant at […] °C; type: biochemical
T3 construct: gene PRDX4; His-tagged wild type human Prx4
T3 sequence (Q13162 38-271): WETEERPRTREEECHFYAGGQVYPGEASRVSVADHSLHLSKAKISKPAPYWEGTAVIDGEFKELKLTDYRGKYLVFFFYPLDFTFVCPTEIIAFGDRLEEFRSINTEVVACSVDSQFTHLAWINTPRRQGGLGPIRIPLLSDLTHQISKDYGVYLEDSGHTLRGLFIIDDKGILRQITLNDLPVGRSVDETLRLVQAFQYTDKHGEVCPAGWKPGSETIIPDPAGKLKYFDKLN

[1] = molecular target: the molecule itself; assay: non-reducing SDS-PAGE (disulfide-linked dimer, redox blotting); purified pre-reduced Prx (20 uM) incubated with cis-WOOH, trans-WOOH (1-20 uM) or H2O2 (2.5-20 uM) for 10 s at 5 °C in 50 mM sodium phosphate pH 7.4 with 100 uM DTPA; NEM 50 mM; non-reducing 4-12% SDS-PAGE, silver stain; monomer and dimer bands
[2] = molecular target: the molecule itself; assay: non-reducing SDS-PAGE (disulfide-linked dimer); purified PKG1α (3.3 uM) with 200 uM cis-WOOH or H2O2, 5 min, 25 °C, 25 mM phosphate pH 7.0, 200 uM TCEP; stopped with 125 mM maleimide; non-reducing 4-12% SDS-PAGE, silver stain

## O=C(O)[C@@H]1C[C@@]2(OO)c3ccccc3N[C@H]2N1 [cis-WOOH]
GPx4
  coupled NADPH oxidation assay, apparent second-order rate constant: 1e+06 M⁻¹ s⁻¹
PKG1α
  oxidative dimerization of purified PKG1α, non-reducing SDS-PAGE: cis-WOOH caused greater PKG1α dimerization than the same concentrations of H2O2
Prx4
  redox blotting, estimated rate constant at 5 °C: ~ 10^3 M^−1 s^−1

## O=C(O)[C@@H]1C[C@]2(OO)c3ccccc3N[C@@H]2N1 [trans-WOOH]
GPx4
  coupled NADPH oxidation assay, apparent second-order rate constant: 1.6e+06 M⁻¹ s⁻¹
Prx4
  redox blotting, estimated rate constant at 5 °C: ~ 10^3 M^−1 s^−1

B1: His-tagged wild type human Prx2 (peroxiredoxin 2) (enzyme, UniProt P32119 1-198, looked up)
chain: MASGNARIGKPAPDFKATAVVDGAFKEVKLSDYKGKYVVLFFYPLDFTFVCPTEIIAFSNRAEDFRKLGCEVLGVSVDSQFTHLAWINTPRKEGGLGPLNIPLLADVTRRLSEDYGVLKTDEGIAYRGLFIIDGKGVLRQITVNDLPVGRSVDEALRLVQAFQYTDEHGEVCPAGWKPGSDTIKPNVDDSKEYFSKHN
notes: human peroxiredoxin 2 (Prx2), wild type; also called His-tagged Prx2; pre-reduced His-tagged Prx2; source: E. coli BL21 (DE3), pET-28a, purified (Ni-NTA)
[1]
  binding result: binds

B2: untagged human Prx2 (His-tag cleaved with Factor Xa) (enzyme, UniProt P32119 1-198, looked up)
chain: MASGNARIGKPAPDFKATAVVDGAFKEVKLSDYKGKYVVLFFYPLDFTFVCPTEIIAFSNRAEDFRKLGCEVLGVSVDSQFTHLAWINTPRKEGGLGPLNIPLLADVTRRLSEDYGVLKTDEGIAYRGLFIIDGKGVLRQITVNDLPVGRSVDEALRLVQAFQYTDEHGEVCPAGWKPGSDTIKPNVDDSKEYFSKHN
notes: human peroxiredoxin 2 (Prx2), wild type; also called untagged Prx2; source: E. coli BL21 (DE3), pET-28a, purified (Ni-NTA), tag cleaved with Factor Xa
[1]
  binding result: binds

B3: purified recombinant human protein kinase G 1α (PKG1α) (enzyme, UniProt Q13976 1-671, looked up)
chain: MSELEEDFAKILMLKEERIKELEKRLSEKEEEIQELKRKLHKCQSVLPVPSTHIGPRTTRAQGISAEPQTYRSFHDLRQAFRKFTKSERSKDLIKEAILDNDFMKNLELSQIQEIVDCMYPVEYGKDSCIIKEGDVGSLVYVMEDGKVEVTKEGVKLCTMGPGKVFGELAILYNCTRTATVKTLVNVKLWAIDRQCFQTIMMRTGLIKHTEYMEFLKSVPTFQSLPEEILSKLADVLEETHYENGEYIIRQGARGDTFFIISKGTVNVTREDSPSEDPVFLRTLGKGDWFGEKALQGEDVRTANVIAAEAVTCLVIDRDSFKHLIGGLDDVSNKAYEDAEAKAKYEAEAAFFANLKLSDFNIIDTLGVGGFGRVELVQLKSEESKTFAMKILKKRHIVDTRQQEHIRSEKQIMQGAHSDFIVRLYRTFKDSKYLYMLMEACLGGELWTILRDRGSFEDSTTRFYTACVVEAFAYLHSKGIIYRDLKPENLILDHRGYAKLVDFGFAKKIGFGKKTWTFCGTPEYVAPEIILNKGHDISADYWSLGILMYELLTGSPPFSGPDPMKTYNIILRGIDMIEFPKKIAKNAANLIKKLCRDNPSERLGNLKNGVKDIQKHKWFEGFNWEGLRKGTLTPPIIPSVASPTDTSNFDSFPEDNDEPPPDDNSGWDIDF
notes: human cGMP-dependent protein kinase 1, isoform alpha (PKG1α); also called PK1α; source: FreeStyle 293-F cells, transfected, purified (Ni-NTA, HiTrap Q), His-tag cleaved with TEV protease
[2]
  binding result: binds
